The record followed here is patent publication US20130123227A1, “NOVEL ORGANO-PALLADIUM COMPLEXES” (priority 2010, published 2013).

The data set can be described thus: Seizure incidence in mice. The data set is classed as in vivo. The source says: The original Pd-lipoic acid complex provides a structure in which the palladium is safely sequestered, and which is also active in the lipoic acid binding site in mitochondrial complex I, thereby coupling to enzymatic charge transfer. […] To eliminate seizure activity, the G10 stage of the synthetic complex was further investigated and combined with various substances, until there were no seizures. This was ultimately achieved by complexing with zinc-amino acid complexes.

SMILES strings stand for the structures.

Regarding `C[C@@H](O)[C@H](N)C(=O)O.C[C@@H](O)[C@H](N)C(=O)O.[Zn]` [Zn-bis(threonine)], the seizures result is “modulates and inhibits the seizure potentials”.
